For one assay, the species on record is Homo sapiens. Put plainly: Selectivity ratio of IC50 for human N-terminal His-tagged JAK2 catalytic domain (828 to 1132 residues) to IC50 for human N-terminal His-tagged JAK1 catalytic domain (837 to 1142 residues).
Assay [1] addresses Tyrosine-protein kinase JAK1 (Homo sapiens, UniProt P23458). Put plainly: Inhibition of human N-terminal His-tagged JAK1 catalytic domain (837 to 1142 residues) expressed in baculovirus infected insect cells assessed as decrease in phosphorylation of biotinylated peptide substrate after 1 hr in presence of 1 mM ATP by HTRF method.
Assay [2] has as its target Tyrosine-protein kinase JAK2 (Homo sapiens, UniProt O60674). Kind of assay: Inhibition of human N-terminal His-tagged JAK2 catalytic domain (828 to 1132 residues) expressed in baculovirus infected insect cells assessed as decrease in phosphorylation of biotinylated peptide substrate after 1 hr in presence of 1 mM ATP by HTRF method. Background: Time-resolved FRET reads energy transfer from a long-lived donor to a nearby acceptor.

Tyrosine-protein kinase JAK1, sequence (P23458 whole entry, the tested form may be a part): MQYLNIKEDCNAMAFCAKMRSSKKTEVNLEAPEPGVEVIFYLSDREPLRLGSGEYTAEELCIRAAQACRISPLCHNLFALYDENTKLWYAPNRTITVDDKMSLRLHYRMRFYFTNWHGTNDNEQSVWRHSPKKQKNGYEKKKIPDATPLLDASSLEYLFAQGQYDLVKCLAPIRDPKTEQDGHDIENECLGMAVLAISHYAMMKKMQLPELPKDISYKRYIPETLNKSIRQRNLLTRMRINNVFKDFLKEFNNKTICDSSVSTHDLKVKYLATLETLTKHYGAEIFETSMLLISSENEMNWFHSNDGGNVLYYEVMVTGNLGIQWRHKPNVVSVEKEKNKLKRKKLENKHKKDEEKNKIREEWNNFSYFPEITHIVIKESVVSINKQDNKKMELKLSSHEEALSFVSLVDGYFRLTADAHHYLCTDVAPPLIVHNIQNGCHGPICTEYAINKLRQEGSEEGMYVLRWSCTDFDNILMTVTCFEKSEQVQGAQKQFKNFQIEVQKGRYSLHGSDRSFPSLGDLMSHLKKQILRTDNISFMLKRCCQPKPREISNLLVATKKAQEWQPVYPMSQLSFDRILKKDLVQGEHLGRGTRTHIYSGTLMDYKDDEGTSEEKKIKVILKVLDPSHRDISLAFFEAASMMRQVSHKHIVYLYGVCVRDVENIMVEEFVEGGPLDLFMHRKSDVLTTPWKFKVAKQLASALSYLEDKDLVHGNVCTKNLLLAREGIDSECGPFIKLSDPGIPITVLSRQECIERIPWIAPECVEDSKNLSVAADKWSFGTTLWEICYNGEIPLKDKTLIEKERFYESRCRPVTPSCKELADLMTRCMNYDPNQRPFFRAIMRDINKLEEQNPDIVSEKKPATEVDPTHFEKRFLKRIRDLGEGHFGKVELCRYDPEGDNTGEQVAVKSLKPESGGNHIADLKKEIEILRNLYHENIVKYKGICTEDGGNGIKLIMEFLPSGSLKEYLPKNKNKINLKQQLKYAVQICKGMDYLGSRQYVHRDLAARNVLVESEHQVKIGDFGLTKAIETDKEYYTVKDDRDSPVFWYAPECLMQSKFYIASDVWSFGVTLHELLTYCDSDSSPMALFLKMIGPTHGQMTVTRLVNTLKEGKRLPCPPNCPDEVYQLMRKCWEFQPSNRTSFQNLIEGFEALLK
Tyrosine-protein kinase JAK2, sequence (O60674 whole entry, the tested form may be a part): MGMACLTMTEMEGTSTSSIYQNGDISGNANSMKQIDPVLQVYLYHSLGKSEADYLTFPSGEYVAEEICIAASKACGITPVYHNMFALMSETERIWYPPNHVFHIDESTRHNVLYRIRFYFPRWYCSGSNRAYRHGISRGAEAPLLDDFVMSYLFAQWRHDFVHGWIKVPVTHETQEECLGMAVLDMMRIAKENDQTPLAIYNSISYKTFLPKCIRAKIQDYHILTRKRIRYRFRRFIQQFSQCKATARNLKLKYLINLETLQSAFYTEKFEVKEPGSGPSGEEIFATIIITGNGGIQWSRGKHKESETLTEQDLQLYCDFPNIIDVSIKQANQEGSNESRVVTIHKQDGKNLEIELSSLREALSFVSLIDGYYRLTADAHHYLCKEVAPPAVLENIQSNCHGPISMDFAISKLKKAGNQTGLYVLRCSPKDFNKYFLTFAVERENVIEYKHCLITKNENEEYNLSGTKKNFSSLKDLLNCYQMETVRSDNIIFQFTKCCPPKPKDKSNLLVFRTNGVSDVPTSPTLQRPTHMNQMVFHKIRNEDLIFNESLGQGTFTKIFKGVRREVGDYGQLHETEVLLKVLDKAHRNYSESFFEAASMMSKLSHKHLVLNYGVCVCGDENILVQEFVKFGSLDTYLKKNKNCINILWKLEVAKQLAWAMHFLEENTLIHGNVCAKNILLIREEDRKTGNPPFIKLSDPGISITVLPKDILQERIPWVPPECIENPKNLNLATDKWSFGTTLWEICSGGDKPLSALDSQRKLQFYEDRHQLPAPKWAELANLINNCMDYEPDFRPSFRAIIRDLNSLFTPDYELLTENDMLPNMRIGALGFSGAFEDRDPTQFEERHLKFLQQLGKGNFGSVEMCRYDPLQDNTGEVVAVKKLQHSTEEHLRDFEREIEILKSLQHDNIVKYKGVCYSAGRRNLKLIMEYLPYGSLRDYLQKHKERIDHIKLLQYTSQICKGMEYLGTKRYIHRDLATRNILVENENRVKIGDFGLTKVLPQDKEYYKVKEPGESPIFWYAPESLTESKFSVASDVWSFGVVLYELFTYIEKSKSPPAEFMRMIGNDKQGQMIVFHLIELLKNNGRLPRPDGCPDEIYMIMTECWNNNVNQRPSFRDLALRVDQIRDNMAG

Consider `N#CCC1(n2cc(-c3ncnc4[nH]ccc34)cn2)CN(C2CCN(C(=O)Nc3cnccc3C(F)(F)F)CC2)C1`, for which the Ratio IC50 in the assay filed under Homo sapiens was 10.4 to 20.3.

In general, IC50 refers to the concentration needed to halve the response being measured. Take `CO[C@@H]1CN(C(=O)c2ccnc(C(F)(F)F)c2F)CC[C@@H]1N1CC(CC#N)(n2cc(-c3ncnc4[nH]ccc34)cn2)C1` (relative stereo): the IC50 in assay [1] was no more than 0.005 µM; in assay [2], greater than 0.1 µM. In addition, the Ratio IC50 in the assay listed under Homo sapiens is 59.2.

On to `N#CCC1(n2cc(-c3ncnc4[nH]ccc34)cn2)CN(C2CCN(C(=O)OCc3cc(F)cc(F)c3)CC2)C1`, for which, in the assay listed under Homo sapiens, the Ratio IC50 is 7.1 to 24.4.

Regarding `N#CCC1(n2cc(-c3ccnc4[nH]ccc34)cn2)CN(C2CCN(C(=O)c3ccnc(C(F)(F)F)c3F)CC2)C1`, the concentration for half-maximal inhibition (IC50) is 0.005 to 0.02 µM in assay [1] and greater than 0.1 µM in assay [2]. For the same compound, the Ratio IC50 in the assay filed under Homo sapiens stood at 21.4.
